Drawing on patent US9345905B2, “Heterocyclic amides compounds which are HDAC6 inhibitors and used as anti-tumoral agents” (Nanjing Allgen Pharma Co. Ltd., priority 2011, dated 2016), this text covers IC50 for 5 molecules.

The target in this test is T1, human HDAC6 (Homo sapiens, UniProt Q9UBN7).
T1 construct: Reaction Biology Corporation
T1 sequence (Q9UBN7 1-1215): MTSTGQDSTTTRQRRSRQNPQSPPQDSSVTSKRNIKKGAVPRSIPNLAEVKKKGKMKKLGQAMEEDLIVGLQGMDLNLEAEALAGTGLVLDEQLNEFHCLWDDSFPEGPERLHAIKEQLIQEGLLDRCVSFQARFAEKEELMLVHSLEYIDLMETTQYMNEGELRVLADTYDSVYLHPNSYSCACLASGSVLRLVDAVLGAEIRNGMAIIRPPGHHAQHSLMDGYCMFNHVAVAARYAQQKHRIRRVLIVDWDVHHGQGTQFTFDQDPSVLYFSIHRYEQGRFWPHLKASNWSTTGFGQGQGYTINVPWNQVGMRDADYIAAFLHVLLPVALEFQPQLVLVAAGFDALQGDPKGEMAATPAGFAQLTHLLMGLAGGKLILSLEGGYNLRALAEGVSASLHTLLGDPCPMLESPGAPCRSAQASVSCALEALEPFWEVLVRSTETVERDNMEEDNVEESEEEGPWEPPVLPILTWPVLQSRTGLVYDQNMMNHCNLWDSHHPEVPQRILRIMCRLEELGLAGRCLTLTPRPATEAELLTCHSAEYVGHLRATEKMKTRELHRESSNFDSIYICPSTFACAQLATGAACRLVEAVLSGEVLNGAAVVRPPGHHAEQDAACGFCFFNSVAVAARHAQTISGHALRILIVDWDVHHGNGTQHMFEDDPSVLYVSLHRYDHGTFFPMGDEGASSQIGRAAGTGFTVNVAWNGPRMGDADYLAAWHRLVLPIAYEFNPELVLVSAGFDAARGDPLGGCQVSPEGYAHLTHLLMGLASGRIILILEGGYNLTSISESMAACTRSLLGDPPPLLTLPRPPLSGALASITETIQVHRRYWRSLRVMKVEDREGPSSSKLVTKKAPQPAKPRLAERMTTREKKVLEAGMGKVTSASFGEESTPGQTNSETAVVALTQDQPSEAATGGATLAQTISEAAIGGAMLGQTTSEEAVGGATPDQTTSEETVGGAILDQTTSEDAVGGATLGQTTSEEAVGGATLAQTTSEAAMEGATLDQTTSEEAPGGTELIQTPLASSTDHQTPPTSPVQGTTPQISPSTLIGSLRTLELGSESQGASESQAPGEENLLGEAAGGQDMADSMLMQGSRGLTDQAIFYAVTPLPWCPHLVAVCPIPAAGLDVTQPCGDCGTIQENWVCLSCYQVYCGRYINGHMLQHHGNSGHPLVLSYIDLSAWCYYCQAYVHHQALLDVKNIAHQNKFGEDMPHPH
Description: HDAC6 inhibition, fluorogenic peptide substrate (Reaction Biology Corporation). Type of test: biochemical. As to the method:
The compounds of the present invention were tested for inhibition of human HDAC6 at Reaction Biology Corporation by using 50 μM Fluorogenic peptide from p53 residues 379-382 (RHKKAc) as the substrate.

[1] abbreviates: 50 μM fluorogenic peptide from p53 residues 379-382 (RHKKAc) as substrate, read-out: IC50, HDAC6 inhibition.

Where two headings read alike, the source gives them in different places.

For orientation: IC50 means the point on the concentration scale where inhibition reaches its midpoint.

Turning to `CN1CCc2c(Sc3ccc(C(=O)NO)cc3)c3ccccc3n2C1` [Example 1, N-Hydroxy-4-((2-methyl-1,2,3,4-tetrahydropyrimido[1,6-a]indol-5-yl)thio)benzamide], the IC50 under setting [1] amounted to 2.48 nM. On the same count and under the same terms, the figure for `Cc1ccc2c(c1)c(Sc1ccc(C(=O)NO)cc1)c1n2CN(C)CC1` [Example 2, 4-((2,7-Dimethyl-1,2,3,4-tetrahydropyrimido[1,6-a]indol-5-yl)thio)-N-hydroxybenzamide] is 35.5 nM; for `CN1CCc2c(Cc3ccc(C(=O)NO)cc3)c3ccccc3n2C1` [Example 3, N-hydroxy-4-((2-methyl-1,2,3,4-tetrahydropyrimido[1,6-a]indol-5-yl)methyl)benzamide] it is 10.7 nM. `CN1CCc2c(C(=O)c3ccc(C(=O)NO)cc3)c3ccccc3n2C1` [Example 4, N-hydroxy-4-(2-methyl-1,2,3,4-tetrahydropyrimido[1,6-a]indole-5-carbonyl)benzamide] registered a half-maximal inhibitory concentration (IC50) of 1490 nM.

Consider `CN1CCn2c(c(Sc3ccc(C(=O)NO)cc3)c3ccccc32)C1=O` [Example 5, N-hydroxy-4-((2-methyl-1-oxo-1,2,3,4-tetrahydropyrazino[1,2-a]indol-10-yl)thio)benzamide], for which the IC50 under setting [1] was determined as 1.76 nM.
